Laboratory results published in patent US4350697A, “Antidepressant and neuroleptic benzothiopyrano [2,3-c]-pyridines” (Roussel Uclaf, priority 1980, dated 1982).

Assays:
[1] = test system: hypothermia induced by apomorphine; experiment: Reversal of apomorphine hypothermia in mice (test E); assay type: in vivo; conditions: Mus musculus, ip; male CD/l mice, test drug i.p. 30 minutes before apomorphine hydrochloride 16 mg/kg s.c.; rectal temperature 30 minutes later; read-out: ED50 for the reversal of the hypothermia induced by apomorphine HCl in mice (test E)
Procedure: D. Reversal of apomorphine hypothermia in mice
Whereas the reversal of the hypothermia induced in mice by low doses of apomorphine is a characteristic of classical neuroleptic agents, the hypothermia induced by high doses of this agent is specifically reversed by antidepressant drugs [Puech et al., In `Advances in Pharmacology and Therapeutics Vol., 5` ed. Dumont, c. Pergamon p. 171-176 (1979)]. Groups of 10 male CD/l mice (16-22 g) were dosed with vehicle or test drug intraperitoneally 30 minutes prior to the subcutaneously injection of apomorphine hydrochloride at 16 mg/kg. The rectal temperatures were recorded 30 minutes later using a rectal thermometer with digital readout.

[2] = target: neuroleptic receptors (frontal cortex membranes, major serotonergic component); experiment: [3H] spiroperidol receptor binding displacement on frontal cortex membranes (test A); conditions: [3H] spiroperidol 0.19 nM, rat frontal cortex membranes, 37° C., 10 minutes
Description: A. [^3 H] Spiroperidol binding to neuroleptic receptors in membranes prepared from the striatum and frontal cortex of rats
The binding of [^3 H] spiroperidol to frontal cortex membranes appears to entail a major serotonergic component, whereas in striatal membranes the binding is predominantly dopaminergic [Leysen et al, Nature Vol. 272 (1978) p. 168-171] The ability of drugs to displace this radioligand from the frontal cortical receptors matches their activity in other models of serotonergic function, both for agonists and antagonists. Likewise, in striatal membranes, such activities predict the antidopaminergic action of neuroleptic drugs.
[Phenyl-4(n)-^3 H] spiroperidol (Radiochemical Centre, TRK 570 21 Ci/mmol was used as the labelled ligand supplied as a 250 μCi/250 μl solution in ethanol and this solution was diluted 3.2/10,000 in assay buffer and 0.1 ml of this was added to 2 ml of binding assay.
=0.19 nM [^3 H] spiroperidol
The assay buffer was a modified 50 mM Tris HCl buffer with a pH of 7.6 and containing 120 mM of sodium chloride, 5 mM of potassium chloride, 1 mM of magnesium chloride, 2 mM of calcium chloride, 10 μM of pargyline and 0.1% of ascorbic acid.
The membrane preparation involved dissecting the frontal cortices or striata from 4 male CFHB rats according to J. Glowinski et al [Eur. J. Pharmacol., Vol. 49, (1978), P. 201-202]. The frontal cortex was taken as that cortical tissue in `C`, dorsal to a horizontal reference line passing through the point where the olfactory bulbs join the frontal cortex. The animals were killed by cervical dislocation and the dissected tissue was homogenized in 20 volumes of ice cold 0.32 M sucrose with a Teflon/glass homogeniser. The homogenate was centrifuged at 1000 g for 10 minutes and the resulting supernatant was recentrifuged at 30,000 g for 30 minutes. The supernatant was discarded and the pellet was resuspended by homogenization in 30 volumes of ice cold assay buffer.
Non-specific binding was accounted for by the inclusion of 1 μM (+) butaclamol in blank binding assays and this required a stock solution of 20 μM in distilled water. Solutions of displacing compounds were prepared at 20x final assay concentration in distilled water.
Binding assays of 1.3 ml assay buffer, 0.5 ml membrane suspension, 0.1 ml distilled H2 O or drug solutions and 0.1 ml [^3 H] spiroperidol dilution were made up in ice with the [^3 H] spiroperidol being added last and incubated at 37° C. for 10 minutes. The bound ligand was separated by filtration through Whatman GF/C filters under vacuum followed by 2×10 ml rinses of ice cold assay buffer. The filters were dried at 80° C. and counted in 5 ml volumes of ECONOFLUOR (NEN). All binding assays, controls, blanks and each displacer concentration were run in triplicate. The [^3 H] spiroperidol receptor binding displacement results on frontal cortex membranes (test A) and on striatal membranes (test B) are given in Table III below and the results are expressed as IC50 (nM).

[3] = target: Muscarinic chloinergic receptor; assay type: binding; conditions: [3H] QNB 0.3 nM, rat forebrain membranes, 25° C., 1 hour; read-out: IC50 test D
[4] = target: α-noradrenergic receptor; experiment: [3H] WB-4101 receptor binding displacement, rat cortical membranes (test C); conditions: [3H] WB-4101 0.25 nM, 25° C., 15 minutes

| SMILES | ED50 [1] [mg/kg] | IC50 [2] [nM] | IC50 [3] [nM] | IC50 [4] [nM] |
| --- | --- | --- | --- | --- |
| Cc1ccc2c(c1)C(c1ccccc1)=C1CCN(C)CC1S2 (stereo not drawn) [Example 22] | > 100 | 2450 | > 100000 | 12500 |
| Cc1cccc(C)c1C1=C2CCN(C)CC2Sc2ccccc21 (stereo not drawn) [Example 23] | > 40 | 331 | 4370 | 617 |
| Cc1ccc(C2=C3CCN(C)CC3Sc3ccccc32)cc1 (stereo not drawn) [Example 3, 2-methyl-5-(4-tolyl)-1,3,4,10a-tetrahydro-2H[1]benzothiopyrano[2,3-c]pyridine] | 20 | 25 | 73600 | 29 |
| CN1CCC2=C(c3cccc(Cl)c3)c3ccccc3SC2C1 (stereo not drawn) [Example 5] | > 40 | 427 | 16200 | 1950 |
| Cc1ccc2c(c1)SC1CN(C)CCC1=C2c1ccccc1 (stereo not drawn) [Example 16] | – | 708 | 29500 | 1450 |
| CCN1CCC2=C(c3ccccc3)c3ccccc3SC2C1 (stereo not drawn) [Example 12] | – | 398 | 19000 | 502 |
| CN1CCC2=C(c3ccc(N(C)C)cc3)c3ccccc3SC2C1 (stereo not drawn) [Example 6, 2-methyl-5-(4-dimethylaminophenyl)-1,3,4,10a-tetrahydro-2H[1]benzothiopyrano[2,3-c]pyridine] | – | 112 | > 100000 | 100 |
| CN1CCC2=C(c3ccccc3)c3cc(Cl)ccc3SC2C1 (stereo not drawn) [Example 13] | > 40 | 1480 | 47900 | 355 |
| CN1CCC2=C(c3ccccc3)c3ccc(Cl)cc3SC2C1 (stereo not drawn) [Example 21] | > 100 | 1140 | 58900 | 3020 |
| Cc1ccccc1C1=C2CCN(C)CC2Sc2ccccc21 (stereo not drawn) [Example 10] | 80 | 105 | 8130 | 813 |
| Cc1cccc2c1SC1CN(C)CCC1=C2c1ccccc1 (stereo not drawn) [Example 18] | > 40 | 174 | 38900 | 794 |
| CCCOc1ccc(C2=C3CCN(C)CC3Sc3ccccc32)cc1 (stereo not drawn) [Example 11] | 22 | 1250 | > 100000 | 6760 |
